Here are results for 17 compounds from patent US10508120B2, “TYK2 inhibitors and uses thereof” (Nimbus Lakshmi, Inc., priority 2017, dated 2019).

One experiment addresses JAK2 kinase domain (JH1) (Homo sapiens (Human), UniProt O60674). Description: JAK2 Radioactive Kinase Assay. The experiment is classed as biochemical. Conditions: for inhibition at 10 µM: read-out: JAK2 JH1% Inhibition @ 10 μM. Put shortly:
(§1)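 Values are single-concentration percent inhibition figures. They were obtained with 10 μM compound in a radioactivity-based kinase assay run separately on each enzyme.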

In a further experiment the target is Tyk2 kinase domain (DH1) (Homo sapiens (Human), UniProt P29597). Description: Tyk2 Radioactive Kinase Assay. The experiment is classed as biochemical. Conditions: for inhibition at 10 µM: read-out: Tyk2 JH1% Inhibition @ 10 μM. A digest of the protocol:
as §1

In experiment [1] the target is human TYK2 (JH2domain-pseudokinase) (Homo sapiens (Human), UniProt P29597). Description: TYK2 JH2 Domain Binding Assay (KINOMEscan). A digest of the protocol:
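Competition binding of a DNA-tagged fusion of human TYK2 JH2 pseudokinase (G556–D888) with NFkB DNA-binding domain, from HEK293 extracts (<0.1 nM final), against immobilised ligand beads; 1 h shaking at room temperature, 0.9% DMSO. Bound kinase quantified by qPCR.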

Read-outs that look alike come from different tables or passages of the source.

human TYK2 (JH2domain-pseudokinase), sequence (P29597 556-888): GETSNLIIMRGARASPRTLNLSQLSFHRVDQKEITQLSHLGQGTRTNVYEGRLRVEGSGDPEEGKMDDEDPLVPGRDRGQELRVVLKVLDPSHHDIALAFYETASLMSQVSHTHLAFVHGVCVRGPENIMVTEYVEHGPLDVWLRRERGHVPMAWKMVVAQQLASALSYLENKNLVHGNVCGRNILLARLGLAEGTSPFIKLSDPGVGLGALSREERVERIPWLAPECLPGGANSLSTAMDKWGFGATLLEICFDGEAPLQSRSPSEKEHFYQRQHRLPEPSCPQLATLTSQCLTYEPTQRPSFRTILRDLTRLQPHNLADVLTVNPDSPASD
JAK2 kinase domain (JH1), sequence (O60674 849-1124): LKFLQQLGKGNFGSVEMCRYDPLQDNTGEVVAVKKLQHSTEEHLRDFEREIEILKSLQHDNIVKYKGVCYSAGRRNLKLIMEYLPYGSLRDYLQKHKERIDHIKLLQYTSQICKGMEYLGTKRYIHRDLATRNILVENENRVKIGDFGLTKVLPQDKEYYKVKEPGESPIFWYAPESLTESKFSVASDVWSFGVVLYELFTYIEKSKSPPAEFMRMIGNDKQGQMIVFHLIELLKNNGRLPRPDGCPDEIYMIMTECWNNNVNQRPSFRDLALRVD
Tyk2 kinase domain (DH1), sequence (P29597 897-1176): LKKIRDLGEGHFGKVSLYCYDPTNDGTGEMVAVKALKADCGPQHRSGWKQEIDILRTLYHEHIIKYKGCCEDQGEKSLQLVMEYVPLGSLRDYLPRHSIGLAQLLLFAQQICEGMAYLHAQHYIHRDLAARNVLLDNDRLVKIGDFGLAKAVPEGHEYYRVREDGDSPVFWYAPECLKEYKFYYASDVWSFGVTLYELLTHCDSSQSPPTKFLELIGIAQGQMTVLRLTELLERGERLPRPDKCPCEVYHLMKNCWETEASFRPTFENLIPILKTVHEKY

In the case of `Cc1nccc(-n2cccc(Nc3cc(N)n4ncc(C(N)=O)c4n3)c2=O)n1` [I-42], the inhibition at 10 µM at JAK2 kinase domain (JH1) (compound at 10 μM, ATP 10 μM) was below 50%; at Tyk2 kinase domain (DH1) (compound at 10 μM, ATP 10 μM), below 50%. In addition, the Kd in experiment [1] is 1 to 10 nM.

Turning to `CNc1cc(Nc2cccnc2OC(F)(F)F)nc2c(C(=O)NC3COC3)cnn12` [I-92], the inhibition at 10 µM on JAK2 kinase domain (JH1) (compound at 10 μM, ATP 10 μM) was below 50%; on Tyk2 kinase domain (DH1) (compound at 10 μM, ATP 10 μM) it was below 50%. In experiment [1], this compound showed a Kd above 10 nM.

For the compound `CNc1cc(Nc2cccn([C@H]3CCCOC3)c2=O)nc2c(C(=O)N[C@H]3CCC[C@H](O)C3)cnn12` (stereo in doubt) [I-704, N-(3-hydroxycyclohexyl)-7-(methylamino)-5-((2-oxo-1-((R)-tetrahydro-2H-pyran-3-yl)-1,2-dihydropyridin-3-yl)amino)pyrazolo[1,5-a]pyrimidine-3-carboxamide], the inhibition at 10 µM on JAK2 kinase domain (JH1) (compound at 10 μM, ATP 10 μM) was below 50%; on Tyk2 kinase domain (DH1) (compound at 10 μM, ATP 10 μM), below 50%. The same compound showed a Kd in experiment [1] of 0.2 to 1 nM.

As to `Cc1cc(Nc2cc(N)n3ncc(C(N)=O)c3n2)c(=O)n(-c2cnn(C)c2)c1` [I-32], the inhibition at 10 µM at JAK2 kinase domain (JH1) (compound at 10 μM, ATP 10 μM) was below 50%; at Tyk2 kinase domain (DH1) (compound at 10 μM, ATP 10 μM), below 50%. The compound further displayed a Kd in experiment [1] of 0.2 to 1 nM.

Regarding `CNc1cc(Nc2cccn(C3CCCN(CCF)C3)c2=O)nc2c(C(=O)NC3CC3)cnn12` (stereo not drawn) [I-848], the inhibition at 10 µM at JAK2 kinase domain (JH1) (10 μM compound, 10 μM ATP) was below 50%; at Tyk2 kinase domain (DH1) (10 μM compound, 10 μM ATP), below 50%. This compound also registered a Kd in experiment [1] below 0.2 nM.

Regarding `CNc1cc(Nc2cccn(-c3cnco3)c2=O)nc2c(C(=O)N[C@@H]3CC[C@@H]3O)cnn12` [I-1018], the inhibition at 10 µM was below 50% on JAK2 kinase domain (JH1) (10 μM compound, 10 μM ATP) and below 50% on Tyk2 kinase domain (DH1) (10 μM compound, 10 μM ATP). In addition, in experiment [1], the Kd was 1 to 10 nM.

As to `CNc1cc(Nc2cccnc2OC2CC2)nc2c(C(=O)NC3CC(F)(F)C3)cnn12` [I-339, 5-((2-cyclopropoxypyridin-3-yl)amino)-N-(3,3-difluorocyclobutyl)-7-(methylamino)pyrazolo[1,5-a]pyrimidine-3-carboxamide], the inhibition at 10 µM is below 50% on JAK2 kinase domain (JH1) (compound at 10 μM, ATP 10 μM) and below 50% at Tyk2 kinase domain (DH1) (compound at 10 μM, ATP 10 μM). In experiment [1], this compound showed an equilibrium dissociation constant (Kd) of 0.2 to 1 nM.

Turning to `CNc1cc(Nc2cccnc2OC(CO)CO)nc2c(C(=O)NC3CCC3)cnn12` [I-201], the inhibition at 10 µM at JAK2 kinase domain (JH1) (compound at 10 μM, ATP 10 μM) was below 50%; on Tyk2 kinase domain (DH1) (compound at 10 μM, ATP 10 μM), below 50%. Further, the Kd in experiment [1] was below 0.2 nM.

As to `CNc1cc(Nc2cccn(C3CCN(C)CC3)c2=O)nc2c(C(=O)NC3CC3)cnn12` [I-348], the inhibition at 10 µM on JAK2 kinase domain (JH1) (compound at 10 μM, ATP 10 μM) was below 50%; on Tyk2 kinase domain (DH1) (compound at 10 μM, ATP 10 μM), below 50%. Further, the Kd in experiment [1] was in the range of 0.2 to 1 nM.

`CNc1cc(Nc2cccc([C@@H]3CCCCO3)n2)nc2c(C(=O)NCC3(CO)CC3)cnn12` [I-565]: the inhibition at 10 µM on JAK2 kinase domain (JH1) (compound at 10 μM, ATP 10 μM) is below 50%; on Tyk2 kinase domain (DH1) (compound at 10 μM, ATP 10 μM), below 50%. For the same compound, in experiment [1], the Kd is below 0.2 nM.

For `CNc1cc(Nc2cccc(N3CC4(CCO4)C3)n2)nc2c(C(=O)NC3CC3)cnn12` [I-618], the inhibition at 10 µM at JAK2 kinase domain (JH1) (compound at 10 μM, ATP 10 μM) was below 50%; at Tyk2 kinase domain (DH1) (compound at 10 μM, ATP 10 μM), below 50%. In experiment [1], this compound had an equilibrium dissociation constant (Kd) below 0.2 nM.

For the compound `CNc1cc(Nc2cccn(C3CCOCC3)c2=O)nc2c(C(=O)N[C@H]3CC[C@@H]3O)cnn12` [I-528], the inhibition at 10 µM on JAK2 kinase domain (JH1) (compound at 10 μM, ATP 10 μM) was below 50%; on Tyk2 kinase domain (DH1) (compound at 10 μM, ATP 10 μM), below 50%. The compound also yielded a Kd in experiment [1] below 0.2 nM.

Turning to `CNc1cc(Nc2cccn([C@H]3C[C@@H]3F)c2=O)nc2c(C(=O)N[C@@H]3CC[C@H]3O)cnn12` [I-1092], the inhibition at 10 µM was below 50% at JAK2 kinase domain (JH1) (10 μM compound, 10 μM ATP) and below 50% at Tyk2 kinase domain (DH1) (10 μM compound, 10 μM ATP). This compound also had a Kd in experiment [1] of 0.2 to 1 nM.

`CNc1cc(Nc2cccn(C3CC4(COC4)C3)c2=O)nc2c(C(=O)NC3CC3)cnn12` [I-550]: the inhibition at 10 µM at JAK2 kinase domain (JH1) (compound at 10 μM, ATP 10 μM) is below 50%; on Tyk2 kinase domain (DH1) (compound at 10 μM, ATP 10 μM), below 50%. For the same compound, the Kd in experiment [1] was below 0.2 nM.

For `CNc1cc(Nc2cccn([C@H]3C[C@@H]3F)c2=O)nc2c(C(=O)N[C@H]3CC[C@H]3O)cnn12` (mixture of isomers) [I-1090, 5-((1-((1S,2S)-2-fluorocyclopropyl)-2-oxo-1,2-dihydropyridin-3-yl)amino)-N-(2-hydroxycyclobutyl)-7-(methylamino)pyrazolo[1,5-a]pyrimidine-3-carboxamide], the inhibition at 10 µM is below 50% on JAK2 kinase domain (JH1) (10 μM compound, 10 μM ATP) and below 50% at Tyk2 kinase domain (DH1) (10 μM compound, 10 μM ATP). The same compound displayed a Kd in experiment [1] below 0.2 nM.

On to `CNc1cc(Nc2cccn(C3CCN(CCC#N)CC3)c2=O)nc2c(C(=O)N[C@H]3C[C@H]3F)cnn12` [I-628, -((1-(1-(2-cyanoethyl)piperidin-4-yl)-2-oxo-1,2-dihydropyridin-3-yl)amino)-N-((1R,2S)-2-fluorocyclopropyl)-7-(methylamino)pyrazolo[1,5-a]pyrimidine-3-carboxamide], for which the inhibition at 10 µM on JAK2 kinase domain (JH1) (compound at 10 μM, ATP 10 μM) is below 50%; at Tyk2 kinase domain (DH1) (compound at 10 μM, ATP 10 μM) it was below 50%. In experiment [1], this compound showed a Kd below 0.2 nM.

`CNc1cc(-c2cn(C(C)C)c3ncccc23)nc2c(C(=O)N[C@@H]3CC[C@@H]3O)cnn12` [I-638]: the “JAK2 JH1% Inhibition @ 10 μM” value on JAK2 kinase domain (JH1) (compound at 10 μM, ATP 10 μM) is given as “A (percent inhibition at 10 μM lower than 50)”. The “Tyk2 JH1% Inhibition @ 10 μM” value at Tyk2 kinase domain (DH1) (compound at 10 μM, ATP 10 μM) is reported as “A (percent inhibition at 10 μM lower than 50)”. This compound yielded a Kd in experiment [1] of 0.2 to 1 nM.
